System: oxaliplatin induced hyperalgesia in the mouse
Assay: Cold plate test, oxaliplatin induced hyperalgesia in mice
Format: in vivo
Conditions: for Licking latency, 15 min after treatment / Licking latency, 30 min after treatment / Licking latency, 45 min after treatment / Licking latency, 60 min after treatment: day 14, oxaliplatin-treated mice; for Licking latency, Pre-test (48 hrs after last oxaliplatin adm.): baseline before treatment, oxaliplatin 2.4 mg/kg i.p., mean of 10 mice
Procedure: The acute oral effect of Moringa oleifera L. seeds extract and purified GMG and GMG-ITC on oxaliplatin induced hyperalgesia in mice (Cold plate test) were evaluated.
The method utilized is a modification of that described by Cavalletti et al. (Cavalletti G. et al., Eur. J. Cancer 37(18), 2457, 2001). Oxaliplatin (2.4 mg/kg) was dissolved in 5% glucose solution and administered i.p. for 5 consecutive days every week for 14 days. On day 14, the test products were suspended in 1% CMC and administered orally. Pregabalin was used, in the same experimental conditions, as a reference active compound at the dose of 15 mg/kg s.c. dissolved in saline.
Pain-related behavior (i.e. lifting and licking of the hind paw) were observed and the time (seconds) of the first sign was recorded.

[1] = group later given 10 mg kg^-1 orally

| SMILES | Licking latency, 15 min after treatment (10 mg kg^-1 oral, acute) | Licking latency, 30 min after treatment (10 mg kg^-1 oral, acute) | Licking latency, 45 min after treatment (10 mg kg^-1 oral, acute) | Licking latency, 60 min after treatment (10 mg kg^-1 oral, acute) [s] | Licking latency, Pre-test (48 hrs after last oxaliplatin adm.) [1] [s] | Licking latency, 15 min after treatment (15 mg kg^-1 s.c.) | Licking latency, 30 min after treatment (15 mg kg^-1 s.c.) | Licking latency, 45 min after treatment (15 mg kg^-1 s.c.) | Licking latency, 60 min after treatment (15 mg kg^-1 s.c.) [s] | Licking latency, Pre-test (48 hrs after last oxaliplatin adm.) (group later given 15 mg kg^-1 s.c.) [s] |
| --- | --- | --- | --- | --- | --- | --- | --- | --- | --- | --- |
| C[C@@H]1O[C@@H](Oc2ccc(C/C(=N/OS(=O)(=O)O)S[C@@H]3O[C@H](CO)[C@@H](O)[C@H](O)[C@H]3O)cc2)[C@H](O)[C@H](O)[C@H]1O [GMG, 4-(α-L-rhamnosyloxy)-benzyl glucosinolate] | 21.1 ± 1.9^^ s | 16.2 ± 0.7^ s | 15.1 ± 1.3^ s | 13.5 ± 2.3 | 10.3 ± 0.5 |  |  |  |  |  |
| C[C@@H]1O[C@@H](Oc2ccc(CN=C=S)cc2)[C@H](O)[C@H](O)[C@H]1O [GMG-ITC, 4-(α-L-rhamnosyloxy)-benzyl isothiocyanate] | 20.9 ± 1.8^^ s | 16.0 ± 0.6^ s | 15.0 ± 1.2^ s | 13.3 ± 2.1 | 10.2 ± 0.4 |  |  |  |  |  |
| CC(C)C[C@H](CN)CC(=O)O [pregabalin, reference compound] |  |  |  |  |  | 19.9 ± 1.9^ s | 16.1 ± 0.6^ s | 14.9 ± 1.3^ s | 13.1 ± 2.0 | 11.0 ± 0.7 |

Reference: US11026984B2, “Use of isothiocyanate derivatives as modulators of peripheral and neuropathic pain” (Indena S.P.A., priority 2015, dated 2021)
